Assays:
[1] = system: Human immunodeficiency virus 1; experiment: Antiviral activity against HIV-1 infected in human MT-4 cells; type: functional, organism-based; settings: Human immunodeficiency virus 1, MT4
[2] = biological target: Human immunodeficiency virus type 1 reverse transcriptase (Human immunodeficiency virus 1, UniProt Q72547); experiment: Inhibition of HIV-1 reverse transcriptase

| Compound | IC50 [1] | IC50 [2] |
| --- | --- | --- |
| COc1cccc(S(=O)(=O)c2cccc(N)c2C#N)c1 | 0.912 µM |  |
| CCNc1nc(N)nc2ncn([C@H]3C[C@H](N=[N+]=[N-])[C@@H](CO)O3)c12 | 17 µM |  |
| [N-]=[N+]=N[C@H]1C[C@H](n2cnc3nc(N)nc(NC4CC4)c32)O[C@@H]1CO | 18.2 µM |  |
| CCCN(C)c1nc(N)nc2ncn([C@H]3C[C@H](N=[N+]=[N-])[C@@H](CO)O3)c12 | 11 µM |  |
| CN(C)c1nc(N)nc2ncn([C@H]3C[C@H](N=[N+]=[N-])[C@@H](CO)O3)c12 | 20.9 µM |  |
| CCOc1nc(N)nc2ncn([C@H]3C[C@H](N=[N+]=[N-])[C@@H](CO)O3)c12 | 22.9 µM |  |
| CCCNc1nc(N)nc2ncn([C@H]3C[C@H](N=[N+]=[N-])[C@@H](CO)O3)c12 | 12 µM |  |
| N#Cc1c(N)cccc1S(=O)(=O)c1cccc(C(F)(F)F)c1 | 34.7 µM |  |
| [N-]=[N+]=N[C@H]1C[C@H](n2cnc3nc(N)nc(Oc4ccccc4)c32)O[C@@H]1CO | 28.2 µM |  |
| [N-]=[N+]=N[C@H]1C[C@H](n2cnc3nc(N)nc(OCc4ccccc4)c32)O[C@@H]1CO | 7.94 µM |  |
| CCCCOc1nc(N)nc2ncn([C@H]3C[C@H](N=[N+]=[N-])[C@@H](CO)O3)c12 | 19.1 µM |  |
| COc1nc(N)nc2ncn([C@H]3C[C@H](N=[N+]=[N-])[C@@H](CO)O3)c12 | 8.91 µM |  |
| [N-]=[N+]=N[C@H]1C[C@H](n2cnc3nc(N)nc(O)c32)O[C@@H]1CO | 5.01 µM |  |
| CCCOc1nc(N)nc2ncn([C@H]3C[C@H](N=[N+]=[N-])[C@@H](CO)O3)c12 | 8.91 µM |  |
| [N-]=[N+]=N[C@H]1C[C@H](n2cnc3nc(N)nc(N4CCC4)c32)O[C@@H]1CO | 8.91 µM |  |
| COc1ccc(S(=O)(=O)c2cccc(N)c2C#N)cc1 |  | 13.2 µM |
| CCCCNc1nc(N)nc2ncn([C@H]3C[C@H](N=[N+]=[N-])[C@@H](CO)O3)c12 | 28.8 µM |  |
| [N-]=[N+]=N[C@H]1C[C@H](n2cnc3nc(N)nc(NC4CCC4)c32)O[C@@H]1CO | 14.1 µM |  |
| [N-]=[N+]=N[C@H]1C[C@H](n2cnc3nc(N)nc(N)c32)O[C@@H]1CO | 2 µM |  |
| CN(c1nc(N)nc2ncn([C@H]3C[C@H](N=[N+]=[N-])[C@@H](CO)O3)c12)C1CC1 | 3.98 µM |  |
| COc1cc([S+]([O-])c2cccc(N)c2C#N)cc(C(F)(F)F)c1 (centres undefined) |  | 0.912 µM |
| [N-]=[N+]=N[C@H]1C[C@H](n2cnc3nc(N)nc(N4CCCC4)c32)O[C@@H]1CO | 7.94 µM |  |
| CCN(C)c1nc(N)nc2ncn([C@H]3C[C@H](N=[N+]=[N-])[C@@H](CO)O3)c12 | 12 µM |  |
| N#Cc1c(N)cccc1[S+]([O-])c1cc(Cl)ccc1Cl (centres undefined) |  | 6.31 µM |
| [N-]=[N+]=N[C@H]1C[C@H](n2cnc3nc(N)nc(Cl)c32)O[C@@H]1CO | 6.03 µM |  |
| CC(C)Oc1nc(N)nc2ncn([C@H]3C[C@H](N=[N+]=[N-])[C@@H](CO)O3)c12 | 21.9 µM |  |
| CNc1nc(N)nc2ncn([C@H]3C[C@H](N=[N+]=[N-])[C@@H](CO)O3)c12 | 52.5 µM |  |
| [N-]=[N+]=N[C@H]1C[C@H](n2cnc3nc(N)nc(NCCc4ccccc4)c32)O[C@@H]1CO | 112 µM |  |
| [N-]=[N+]=N[C@H]1C[C@H](n2cnc3nc(N)nc(OC4CCC4)c32)O[C@@H]1CO | 5.01 µM |  |

Source: ChEMBL document CHEMBL2429824, “Computer-assisted design of dual-target anti-HIV-1 compounds” (Med Chem Res, 2013)
